Literature values as cited in PMC10323144, “Garbage in, garbage out: how reliable training data improved a virtual screening approach against SARS-CoV-2 MPro” (Frontiers in Pharmacology, 2023).
Square brackets hold non-standard residues; d marks the D form. Peptide text beside a SMILES is read from it. * marks the point of attachment. Nle = CCCC[CH](N)C(=O)O; Cbz = O=C(OCc1ccccc1)*

System: MPro
Details: compiled from peer-reviewed sources (287 compounds) ref the 18 original articles; cited from earlier work

CC(C)C(NC(=O)OCc1ccccc1)C(=O)NC(C=O)Cc1ccccc1 (stereo not drawn) [Calpain inhibitor III] (Cbz-Val-Phe-aldehyde; configuration not given here)
Class (MPro activity class): 0 (compounds with IC50 > 20 μM, percentage inhibition <80% at 20 µM or 50 μM, or percentage enzyme inhibition <50% at 10 µM were labelled as INACTIVE)

CSCCC(C=O)NC(=O)C(CC(C)C)NC(=O)C(CC(C)C)NC(C)=O (stereo not drawn) [Calpain inhibitor II] (Ac-Leu-Leu-Met-aldehyde; configuration not given here)
Class (MPro activity class): 1 (Compounds with IC50 < 10 µM or with a percentage of enzyme inhibition >50% at 10 µM were labelled as ACTIVE)

CCCCC(C=O)NC(=O)C(CC(C)C)NC(=O)C(CC(C)C)NC(C)=O (stereo not drawn) [Calpain inhibitor I] (Ac-Leu-Leu-[Nle]-aldehyde; configuration not given here)
Class (MPro activity class): 1 (Compounds with IC50 < 10 µM or with a percentage of enzyme inhibition >50% at 10 µM were labelled as ACTIVE)

CC(C)CC(C=O)NC(=O)C(NS(=O)(=O)c1ccc(F)cc1)C(C)C (centres unmarked) [Calpain inhibitor VI]
Class (MPro activity class): 0 (compounds with IC50 > 20 μM, percentage inhibition <80% at 20 µM or 50 μM, or percentage enzyme inhibition <50% at 10 µM were labelled as INACTIVE)

CCCC(NC(=O)C(CC(C)C)NC(=O)OCc1ccccc1)C(=O)C(=O)NCc1ccccn1 (centres unmarked) [Calpain inhibitor XII]
Class (MPro activity class): 1 (Compounds with IC50 < 10 µM or with a percentage of enzyme inhibition >50% at 10 µM were labelled as ACTIVE)

CN(C)C(=O)COC(=O)Cc1ccc(OC(=O)c2ccc(NC(=N)N)cc2)cc1 [Camostat]
Class (MPro activity class): 0 (compounds with IC50 > 20 μM, percentage inhibition <80% at 20 µM or 50 μM, or percentage enzyme inhibition <50% at 10 µM were labelled as INACTIVE)

CC1C=CC=CC=CC=CC=CC=CC=CC(OC2OC(C)C(O)C(N)C2O)CC(O)C(C(=O)O)C(O)CC(=O)CC(O)CC(O)CC(O)CC(=O)CCCC(=O)CC(=O)OC1C(C)CC(C)C(O)CC(=O)c1ccc(N)cc1 (centres unmarked) [Candicidin]
Class (MPro activity class): 0 (compounds with IC50 > 20 μM, percentage inhibition <80% at 20 µM or 50 μM, or percentage enzyme inhibition <50% at 10 µM were labelled as INACTIVE)

Cn1nc(C(C)(C)C)cc1C(=O)NC(Cc1cccc(Cl)c1)C(=O)NCC#N (centres unmarked) [Cathepsin inhibitor 1]
Class (MPro activity class): 0 (compounds with IC50 > 20 μM, percentage inhibition <80% at 20 µM or 50 μM, or percentage enzyme inhibition <50% at 10 µM were labelled as INACTIVE)

O=C(/C=C/c1ccc(O)c(O)c1)O[C@@H]1C[C@](O)(C(=O)O)C[C@@H](O)[C@H]1O [Chlorogenic acid]
Class (MPro activity class): 0 (compounds with IC50 > 20 μM, percentage inhibition <80% at 20 µM or 50 μM, or percentage enzyme inhibition <50% at 10 µM were labelled as INACTIVE)

O=C(O)C1OC(Oc2cc(O)c3c(=O)cc(-c4ccccc4)oc3c2)C(O)C(O)C1O [Chrysin-7-O-β-D-glucoronide]
Class (MPro activity class): 0 (compounds with IC50 > 20 μM, percentage inhibition <80% at 20 µM or 50 μM, or percentage enzyme inhibition <50% at 10 µM were labelled as INACTIVE)

O=c1cc(-c2ccccc2)oc2cc(O)cc(O)c12 [Chrysin]
Class (MPro activity class): 0 (compounds with IC50 > 20 μM, percentage inhibition <80% at 20 µM or 50 μM, or percentage enzyme inhibition <50% at 10 µM were labelled as INACTIVE)

O=C(C=Cc1ccc(O)c(O)c1)OC1C(O)CC(O)(C(=O)O)CC1O (centres unmarked) [Cryptochlorogenic acid]
Class (MPro activity class): 0 (compounds with IC50 > 20 μM, percentage inhibition <80% at 20 µM or 50 μM, or percentage enzyme inhibition <50% at 10 µM were labelled as INACTIVE)

CC(C)CC1CN(C(=O)CCl)CCN1Cc1cccc(Cl)c1 (centres unmarked) [DAN-LON-a5fc619e-3]
Class (MPro activity class): 1 (Compounds with IC50 < 10 µM or with a percentage of enzyme inhibition >50% at 10 µM were labelled as ACTIVE)

O=C(CCl)N1CC2CC1CN2Cc1cccc(Cl)c1 (centres unmarked) [DAN-LON-a5fc619e-8]
Class (MPro activity class): 1 (Compounds with IC50 < 10 µM or with a percentage of enzyme inhibition >50% at 10 µM were labelled as ACTIVE)

CC(NC(=O)Cc1cc(F)cc(F)c1)C(=O)NC(C(=O)OC(C)(C)C)c1ccccc1 (centres unmarked) [DAPT (GSI-IX)]
Class (MPro activity class): 0 (compounds with IC50 > 20 μM, percentage inhibition <80% at 20 µM or 50 μM, or percentage enzyme inhibition <50% at 10 µM were labelled as INACTIVE)

CCNc1ncc(C#N)cc1CN1CCN(C(=O)CCl)CC1 [DAR-DIA-fb20be43-4]
Class (MPro activity class): 1 (Compounds with IC50 < 10 µM or with a percentage of enzyme inhibition >50% at 10 µM were labelled as ACTIVE)

N#Cc1cc(CN2CCN(C(=O)CCl)CC2)c2ccccc2c1 [DAR-DIA-fb20be43-6]
Class (MPro activity class): 1 (Compounds with IC50 < 10 µM or with a percentage of enzyme inhibition >50% at 10 µM were labelled as ACTIVE)

COc1cc(CN2CCN(C(=O)CCl)CC2)c2ccccc2c1 [DAR-DIA-fb20be43-7]
Class (MPro activity class): 1 (Compounds with IC50 < 10 µM or with a percentage of enzyme inhibition >50% at 10 µM were labelled as ACTIVE)

CC(O)c1cc(C(=O)N[C@@H](C)Cn2ccc(-c3ccc(C#N)c(Cl)c3)n2)[nH]n1 (some centres unmarked) [DAROLUTAMIDE]
Class (MPro activity class): 0 (compounds with IC50 > 20 μM, percentage inhibition <80% at 20 µM or 50 μM, or percentage enzyme inhibition <50% at 10 µM were labelled as INACTIVE)

CC(NC(=O)CCl)c1cc(Cl)cc(-c2ccc(S(N)(=O)=O)cc2)c1 (centres unmarked) [DAV-CRI-14a23e73-1]
Class (MPro activity class): 1 (Compounds with IC50 < 10 µM or with a percentage of enzyme inhibition >50% at 10 µM were labelled as ACTIVE)

O=C(CCl)Nc1nc2c(S(=O)(=O)NCCc3ccccc3)cccc2s1 [DUN-NEW-f8ce3686-23]
Class (MPro activity class): 1 (Compounds with IC50 < 10 µM or with a percentage of enzyme inhibition >50% at 10 µM were labelled as ACTIVE)

COC(=O)N[C@H](C(=O)N1CCC[C@H]1c1nc(-c2ccc(-c3ccc(-c4c[nH]c([C@@H]5CCCN5C(=O)[C@@H](NC(=O)OC)C(C)C)n4)cc3)cc2)c[nH]1)C(C)C [Daclatasvir]
Class (MPro activity class): 0 (compounds with IC50 > 20 μM, percentage inhibition <80% at 20 µM or 50 μM, or percentage enzyme inhibition <50% at 10 µM were labelled as INACTIVE)

CC(C)(C)OC(=O)N[C@H]1CCCCC/C=C\[C@@H]2C[C@@]2(C(=O)NS(=O)(=O)C2CC2)NC(=O)[C@@H]2C[C@@H](OC(=O)N3Cc4cccc(F)c4C3)CN2C1=O [Danoprevir]
Class (MPro activity class): 0 (compounds with IC50 > 20 μM, percentage inhibition <80% at 20 µM or 50 μM, or percentage enzyme inhibition <50% at 10 µM were labelled as INACTIVE)

CC(C)CN(C[C@@H](O)[C@H](Cc1ccccc1)NC(=O)O[C@H]1CO[C@H]2OCC[C@H]21)S(=O)(=O)c1ccc(N)cc1 [Darunavir]
Class (MPro activity class): 0 (compounds with IC50 > 20 μM, percentage inhibition <80% at 20 µM or 50 μM, or percentage enzyme inhibition <50% at 10 µM were labelled as INACTIVE)

CC(C)Nc1cccnc1N1CCN(C(=O)c2cc3cc(NS(C)(=O)=O)ccc3[nH]2)CC1 [Delavirdine]
Class (MPro activity class): 0 (compounds with IC50 > 20 μM, percentage inhibition <80% at 20 µM or 50 μM, or percentage enzyme inhibition <50% at 10 µM were labelled as INACTIVE)

O=C1c2c(O)cc(O)cc2O[C@H](c2cc(O)c(O)c(O)c2)[C@H]1O [Dihydromyricetin]
Class (MPro activity class): 1 (Compounds with IC50 < 10 µM or with a percentage of enzyme inhibition >50% at 10 µM were labelled as ACTIVE)

CC(C)CC(NC(=O)C1OC1C(=O)O)C(=O)NCCCCN=C(N)N (centres unmarked) [E-64]
Class (MPro activity class): 0 (compounds with IC50 > 20 μM, percentage inhibition <80% at 20 µM or 50 μM, or percentage enzyme inhibition <50% at 10 µM were labelled as INACTIVE)

O=C(Cc1cccc(Cl)c1)Nc1cccnc1 [EDG-MED0da5ad92-2]
Class (MPro activity class): 0 (compounds with IC50 > 20 μM, percentage inhibition <80% at 20 µM or 50 μM, or percentage enzyme inhibition <50% at 10 µM were labelled as INACTIVE)

Cc1ccc(NC(=O)Cc2cccc(Cl)c2)cn1 [EDG-MED0da5ad92-13]
Class (MPro activity class): 0 (compounds with IC50 > 20 μM, percentage inhibition <80% at 20 µM or 50 μM, or percentage enzyme inhibition <50% at 10 µM were labelled as INACTIVE)

Cc1ncccc1NC(=O)Cc1cccc(Cl)c1 [EDG-MED0da5ad92-14]
Class (MPro activity class): 0 (compounds with IC50 > 20 μM, percentage inhibition <80% at 20 µM or 50 μM, or percentage enzyme inhibition <50% at 10 µM were labelled as INACTIVE)

C#Cc1cccc(Nc2ncnc3cc(OCCOC)c(OCCOC)cc23)c1 [ERLOTINIB]
Class (MPro activity class): 0 (compounds with IC50 > 20 μM, percentage inhibition <80% at 20 µM or 50 μM, or percentage enzyme inhibition <50% at 10 µM were labelled as INACTIVE)

COc1cc2c(cc1Cc1cccc(Cl)c1F)c(=O)c(C(=O)O)cn2[C@H](CO)C(C)C [Elvitegravir]
Class (MPro activity class): 0 (compounds with IC50 > 20 μM, percentage inhibition <80% at 20 µM or 50 μM, or percentage enzyme inhibition <50% at 10 µM were labelled as INACTIVE)

Cc1cc(C#N)cc(C)c1Oc1nc(Nc2ccc(C#N)cc2)nc(N)c1Br [Etravirine]
Class (MPro activity class): 0 (compounds with IC50 > 20 μM, percentage inhibition <80% at 20 µM or 50 μM, or percentage enzyme inhibition <50% at 10 µM were labelled as INACTIVE)

C[C@@H]1O[C@@H](OC[C@H]2O[C@@H](OCCc3ccc(O)c(O)c3)[C@H](O)[C@@H](O)[C@@H]2OC(=O)/C=C/c2ccc(O)c(O)c2)[C@H](O)[C@H](O)[C@H]1O [Forsythoside A]
Class (MPro activity class): 1 (Compounds with IC50 < 10 µM or with a percentage of enzyme inhibition >50% at 10 µM were labelled as ACTIVE)

CC1OC(OCC2OC(OCCc3ccc(O)c(O)c3)C(O)C(OC(=O)C=Cc3ccc(O)c(O)c3)C2O)C(O)C(O)C1O (centres unmarked) [Forsythoside I]
Class (MPro activity class): 1 (Compounds with IC50 < 10 µM or with a percentage of enzyme inhibition >50% at 10 µM were labelled as ACTIVE)

CO[C@@H]1[C@H](OC(=O)/C=C/C=C/C=C/C=C/C(=O)O)CC[C@]2(CO2)[C@H]1[C@@]1(C)O[C@@H]1CC=C(C)C [Fumagillin]
Class (MPro activity class): 0 (compounds with IC50 > 20 μM, percentage inhibition <80% at 20 µM or 50 μM, or percentage enzyme inhibition <50% at 10 µM were labelled as INACTIVE)

Cc1cc(Nc2cc(CN3CCOCC3)c3nc(C)c(Cc4ccc(Cl)cc4F)n3n2)n[nH]1 [GANDOTINIB]
Class (MPro activity class): 0 (compounds with IC50 > 20 μM, percentage inhibition <80% at 20 µM or 50 μM, or percentage enzyme inhibition <50% at 10 µM were labelled as INACTIVE)

CC(C)CC(NC(=O)OCc1ccccc1)C(=O)NC(C=O)CC1CCNC1=O (centres unmarked) [GC373]
Class (MPro activity class): 1 (Compounds with IC50 < 10 µM or with a percentage of enzyme inhibition >50% at 10 µM were labelled as ACTIVE)
